Measurements reported in patent publication US5212165A, “Method for rehabilitating the vasorelaxant action of the coronary arteries impaired through atherosclerosis or hypercholesterolemia employing an ACE inhibitor” (E. R. Squibb & Sons, Inc., priority 1989, dated 1993).

What was measured:
[1] = system: K^+ depolarized arteries (iliac rings); experiment: Contractile responses to CaCl2 in K^+ depolarized iliac rings from cynomolgus monkeys; set-up: species or system cynomolgus (Macaca fascicularis) monkeys
Excerpt: Twenty-four male cynomolgus (Macaca fascicularis) monkeys were divided into four groups of six animals each. During the course of the study, one of the control monkeys was sacrificed due to ill health unrelated to the study. Each group was fed a different diet for six months. The control group ate a normal diet of monkey biscuit. The cholesterol group ate a specially formulated monkey diet containing cholesterol. The cholesterol +low captopril group ate the cholesterol diet supplemented with captopril (50 mg/kg divided into two daily doses). The cholesterol+high captopril group ate the cholesterol diet and a higher total dose of captopril (100 mg/kg divided into two daily doses).
The monkeys were sedated with an intramuscular injection of ketamine (10 mg/kg), then anesthetized with pentobarbital (25 mg/kg). The iliac arteries were carefully dissected, cleaned of surrounding connective tissue, and refrigerated overnight for use the following day.
On the day of the experiment, three iliac rings (3 mm wide) from each animal were cut and mounted for isometric force recording. Each ring was attached to a micrometer for the control of muscle length and to a Grass FT.03 force transducer and Grass 7D recorder. The rings were placed in warm (37° C.), oxygenated, physiological salt solution (PSS) of the following composition (in mM): 140.0 NaCl, 4.7 KCl, 1.2 MgSO4, 1.6 CaCl2, 1.2 NaH2 PO4, 5.6 D-glucose, 2.0 2-(N-morpholino)propanesulfonic acid (MOPS, pH 7.4 at 37° C.), and 0.02 Na2 -ethylenediaminetetraacetic acid (EDTA). The rings were stretched to a preload of 5 g during a 2 hour equilibration period, then stimulated with 1 μM phenylephrine to test for viability and relaxed with 100 nM acetylcholine to test for endothelial function. Stock solutions of phenylphrine, acetylcholine, propranolol, and sodium nitroprusside were prepared daily in water; nifedipine stock solutions were prepared daily in ethanol.
The voltage-dependent calcium channels were studied in one ring from each monkey. The protocol consisted of depleting the cells of calcium by exposing the rings to a Ca-free, EGTA (ethylene glycol-bis(β-aminoethyl ether)N,N,N',N'-tetraacetic acid) PSS (omission of CaCl2 and addition of 0.1 mM EGTA) for 30 minutes. The EGTA was subsequently removed from the tissues with three washes of Ca-free PSS (simple omission of CaCl2). Following that, the rings were bathed in Ca-free, K^+ PSS (omission of CaCl2 and isoosmotic substitution of KCl for NaCl such that the KCl concentration was 110 mM) for 30 minutes. A CaCl2 concentration-response curve was obtained by replacing the bath solution with K^+ PSS containing incremental increases in CaCl2 concentration (0.1, 0.3, 0.5, 1.0, 1.25, 1.6, and 2.5 mM). The maximal contractions, in response to 2.5 mM CaCl2, were then relaxed incrementally with nifedipine. Another iliac ring (fade control) from each monkey was subjected to the same protocol with the exception that the strips were allowed to remain contracted and the nifedipine concentration-response curve was not obtained. Some fade of the CaCl2 -induced force was observed over the time period required for the nifedipine concentration-response curve. This fade was accounted for by decreasing the amount of relaxation observed upon addition of nifedipine by the amount of fade observed in the time control from the same monkey.
Data are presented as mean±SEM. The IC50 and EC50 values were estimated by linearly interpolating from the concentration-response curves. The EC50 values for each ring were used to determine the means for each treatment group.
Concentration-response curves to CaCl2 in K^+ depolarized rings were obtained following depletion of tissue calcium by repeated washing in Ca-free PSS first with, then without, EGTA. There were no differences in the responses to CaCl2 among any of the treatment groups (Table 1).

[2] = system: vascular relaxation in response to EN-D (ACh) and EN-I (Na nitroprusside) agonists; settings: oral; rats; cited from earlier work
[3] = system: patients with Raynaud's phenomenon; settings: cited from earlier work

In the case of C[C@H](CS)C(=O)N1CCC[C@H]1C(=O)O [captopril, 1-[(2S)-3-mercapto-2-methylpropionyl]-L-proline], the “Max Force (CaCl2)” value ([1]; Cholesterol + High Captopril (100 mg/kg daily, six months), Mean ± SEM) is reported as 16.8 ± 1.1 g, the “Max Force (CaCl2)” value ([1]; Cholesterol + Low Captopril (50 mg/kg daily, six months), Mean ± SEM) is reported as 16.5 ± 1.8 g and the EC50 at 100 mg/kg ([1]; Macaca fascicularis, Cholesterol + High Captopril (100 mg/kg daily, six months), Mean ± SEM) is reported as 150 ± 30 µM. The EC50 at 50 mg/kg ([1]; Macaca fascicularis, Cholesterol + Low Captopril (50 mg/kg daily, six months), Mean ± SEM) was 140 ± 40 µM, the “effect on in vitro response of iliac arteries to CaCl2” value ([1]; cholesterol-fed monkeys, with captopril) was “neither cholesterol nor captopril affected” and the “vascular relaxations in response to EN-D (ACh) and EN-I (Na nitroprusside) agonists” value [2] was “differentially affected vascular relaxations”. For the same compound, the marked subjective improvement ([3]; 20 patients with primary or secondary Raynaud's phenomenon, Trubestein et al) was 14 cases, the “incidence or severity of peripheral vasospasm” value ([3]; Raynaud's with hypertension secondary to scleroderma, Coffman) was “does not decrease the incidence or severity of peripheral vasospasm” and the digital circulation ([3]; one patient, Miyazaki et al) was “improved a patient's digital circulation”. The “benefit in Raynaud's phenomenon and chronic leg ulceration” value ([3]; one patient, Rustin et al 1989) was “no benefit”, the cutaneous blood flow ([3]; p.o., 15 patients, placebo-controlled, double-blind cross-over, Rustin et al 1987) was “significantly improved cutaneous blood flow” and the “frequency or severity of attacks” value ([3]; p.o., 15 patients, Rustin et al 1987) was “no effect on frequency or severity of attacks”. For the same compound, the “frequency and severity of ischemic attacks” value ([3]; patients with Raynaud's disease, Tosi et al) was “significantly decreased the frequency and the severity of ischemic attacks” and the “ischemic attacks in patients with scleroderma” value ([3]; patients with scleroderma, Tosi et al) was “did not affect the attacks”.
